Experimental findings from publication PMC8365597, “Structural Insights into Notum Covalent Inhibition” (Journal of Medicinal Chemistry, 2021) are described below.

Substitutions are numbered along the chain they refer to.

One assay concerns the target T1, Notum (deglycosylated) (Homo sapiens, UniProt Q6P988, C330S).
T1 construct: comprising amino acids S81–T451 with a C330S mutation; inferred from HisTrap purification and imidazole elution; made in house
T1 sequence (Q6P988 81-451 C330S): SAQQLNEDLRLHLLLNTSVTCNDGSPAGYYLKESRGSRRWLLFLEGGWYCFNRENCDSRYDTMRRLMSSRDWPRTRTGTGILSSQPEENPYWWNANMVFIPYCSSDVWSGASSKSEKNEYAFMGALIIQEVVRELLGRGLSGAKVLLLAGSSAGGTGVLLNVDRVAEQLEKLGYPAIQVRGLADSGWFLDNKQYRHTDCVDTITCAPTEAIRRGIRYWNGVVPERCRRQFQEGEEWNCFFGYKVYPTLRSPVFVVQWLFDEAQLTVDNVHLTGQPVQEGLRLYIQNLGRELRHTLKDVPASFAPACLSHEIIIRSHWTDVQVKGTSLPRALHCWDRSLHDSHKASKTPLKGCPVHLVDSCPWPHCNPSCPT
Put plainly: ESI-QTOF intact protein mass spectrometry detection of covalent binding. Particulars: 10 mM Hepes pH 7.4, 150 mM NaCl, room temperature, 1 h. On the procedure: (§1) However, the crystals were grown and soaked under low pH (pH 4.2) and high salt (1.5 M ammonium sulphate) conditions. To measure covalent bonding and stability under near physiological conditions, we incubated Notum (deglycosylated) protein with 1 in buffer containing 10 mM Hepes, pH 7.4, 150 mM NaCl at room temperature for 1 h. The mixture was then subjected to ultrahigh-performance liquid chromatography (uHPLC) reversed-phase chromatography separation, followed by electrospray ionization quadrupole time-of-flight (ESI-QTOF) mass spectrometry analysis. […] There are some other minor peaks that may reflect incomplete removal of glycans. […] The calculated MW of 1 is 233.27 Da, while its methyl ester-hydrolyzed form (RW8) is 201.22 Da. […] To establish whether the covalent link is dependent on the nucleophile serine residue, we further used the Notum S232A mutant as a control, observing a mass of 44103.32 Da (Figure 2C). The decrease of 15.79 Da compared to the wild type is consistent with the expected serine to alanine mutation.
(§2) Reversed-phase chromatography was performed in-line prior to mass spectrometry using an Agilent 1290 uHPLC system (Agilent Technologies inc. USA). […] Protein intact mass was determined using a 6530 ESI-QTOF mass spectrometer (Agilent Technologies Inc. USA). […]

The next assay concerns the target T2, Notum (glycosylated) (Homo sapiens, UniProt Q6P988, C330S).
T2 construct: comprising amino acids S81–T451 with a C330S mutation; inferred from HisTrap purification and imidazole elution; made in house
T2 sequence (Q6P988 81-451 C330S): T1 sequence (Q6P988 81-451 C330S)
The assay is described as follows: Thermal shift assay (differential scanning fluorimetry). Particulars: for ΔTm at 1000 µM: compound 1 mM, read-out: max ΔTm; for ΔTm: compound ∼30 μM (31 μM in Figure 3). It is filed as binding. On the procedure:
To further characterize Notum 1 binding, especially regarding the importance of the methyl ester warhead of 1, we used a thermal shift assay (also known as differential scanning fluorimetry) to compare the binding properties of 1 with its methyl-less acid form, 4-indolinyl-4-oxobutanoic acid (2). The thermal shift assay is a reliable label-free strategy to detect small molecule–protein binding by measuring protein melting temperature (Tm) changes.[39]−[41] A ΔTm of 2 °C or more indicates a small molecule binding to the target protein.[42] Notum was incubated with each compound in the presence of a fluorescent indicator, […], and the melting curves were recorded. 1 and 2, despite only differing by a single methyl group, yield highly different Notum melting curves (Figure 3). […] To establish the dose-dependent thermal shift responses, we performed a twofold serial dilution of the compounds.
Thermal shift assays were carried out in a semiskirted 96-well PCR plate (4-Titude). Each well contains 3 μg of glycosylated Notum protein, 3× SYPRO Orange dye (Thermo Fisher Scientific), and compounds at various concentrations and adjusted to a final volume of 50 μL with assay buffer (10 mM Hepes, pH7.4, 150 mM NaCl, and 2% DMSO). The samples were heated in an Mx3005p qPCR machine (Stratagene, Agilent Technologies) from room temperature at a rate of 1 °C/min for 74 cycles. Fluorescence changes were monitored with excitation and emission wavelengths at 492 and 610 nm, respectively.

Another assay addresses T3, Notum S232A mutant (Homo sapiens, UniProt Q6P988, C330S/S232A).
T3 construct: comprising amino acids S81–T451 with a C330S mutation; inferred from HisTrap purification and imidazole elution; made in house
T3 sequence (Q6P988 81-451 S232A/C330S): T1 sequence (Q6P988 81-451 C330S) with S152A
Put plainly: ESI-QTOF intact protein mass spectrometry detection of covalent binding, mutant control. The following applies: 10 mM Hepes pH 7.4, 150 mM NaCl, room temperature, 1 h. As to the method: as §1, §2

Assay [1] concerns the target T4, Notum (Homo sapiens, UniProt Q6P988, C330S).
T4 construct: comprising amino acids S81–T451 with a C330S mutation; inferred from HisTrap purification and imidazole elution; made in house
T4 sequence (Q6P988 81-451 C330S): T1 sequence (Q6P988 81-451 C330S)
Put plainly: Notum OPTS activity assay (cell-free biochemical). From the text:
Notum is a druggable target for Wnt signaling modulation.[23] We have previously determined a number of structures of Notum inhibitor complexes.[21],[22],[24],[25],[27],[28] All of these inhibitors bind noncovalently at the Notum enzyme catalytic pocket, where the natural substrate PAM binds. For searching covalent inhibitors, we used this noncovalent inhibitor binding information to limit compound docking into the enzyme active site. A virtual library of approximately 1.5 million compounds (ChemDiv) was filtered to generate 534,804 candidates for docking with a Notum structure (PDB code 6T2K) by Schrödinger Glide SP[37],[38] (Experimental Section). Resulting 1330 compounds with score −9 or better were subject to manual inspection and availability check. Finally, 952 compounds were purchased and experimentally screened using a cell-free trisodium 8-octanoyloxypyrene-1,3,6-trisulfonate (OPTS) biochemical assay.[22] […] The soaked crystals were harvested, and diffraction data were collected at the Diamond Light Source. The structures were determined by molecular replacement and refined with Refmac to screen for difference map peaks (Experimental Section). Chemical structures were then fitted into the difference maps with the aim of identifying covalent binders. Methyl 4-indolinyl-4-oxobutanoate (1) was identified as the only covalent binder to emerge from the screen (Figure 1). The 1 soaked crystal diffracted to 1.2 Å resolution with a P2_12_12_1 space group containing one enzyme-inhibitor complex in an asymmetric unit (for data collection and refinement statistics, see Supporting Information, Table S1). The overall structure maintained the characteristic apo Notum fold (Figure 1A), with a α/β hydrolase core domain (β1-8 strands and αB, C, and F helices) and a moveable lid domain (αA, D, and E helices). 1 is composed of an indole ring linked to an oxo-butyric acid methyl ester (Figure 1B). The methyl ester-hydrolyzed 1 (with PDB identifier RW8) is an excellent fit in the strong electron density that extends from the nucleophile residue S232 (Figure 1C). The electron density for the RW8 is of equally high quality to that of the surrounding Notum amino acids. […] The movable lid domain sits between the “open” (PDB code 4UYU) and “closed” (PDB code 4UZ1) conformations with obvious movements of the flexible β6_αD loop (Figure 1D). When superimposed with the natural substrate, PAM-bound, structure (PDB code 4UZQ), the RW8 overlaps with the PAM within the enzyme pocket (Figure 1E). The indole ring is located toward the bottom of the pocket, while the butyric acid head group is well-aligned with the PAM head (Figure 1E). Residues that form the base of the pocket (P287–I291) are positioned closer to the RW8 indole ring than in the PAM-bound structure. For example, P287 Cα has moved 1.7 Å toward the pocket center (Figure 1E) to optimize interactions with the RW8 indole ring, which extends less far into the pocket than PAM.
The Notum inhibitory potencies of these compounds were assessed by determining OPTS IC50 values, which can be used to compare the relative activities of covalent inhibitors under carefully regulated conditions.[43] […] When a phenyl ring is added to produce benzyl ester, 5, the IC50 is also slightly better than 1.
The OPTS activity assay has been described in previous reports.[24],[25] Briefly, the test compounds, the reporter substrate OPTS (Sigma), and the recombinant Notum protein were dispensed into 384-well plates (Greiner) using a Labcyte Echo 550 acoustic liquid handler and incubated 40 min in room temperature. The endpoint fluorescence was measured on a PheraSTAR FSX microplate reader with an excitation wavelength of 485 nm and an emission wavelength of 520 nm. The compound IC50 values were calculated from curves using a 4PL fit.

The target of assay [2] is T4, Notum. Put plainly: Cell-based TCF/LEF reporter (luciferase) assay, HEK293 STF cells with exogenous Wnt3a and Notum. The following applies: HEK293 TCF/LEF luciferase reporter cell line. As to the method:
Selected compounds were further investigated for inhibition of Notum activity in a Wnt/β-catenin signaling pathway TCF/LEF reporter (luciferase) HEK293 cell line with exogenous Wnt3a and Notum.[22],[25]
The cellular Wnt signaling functional assay has been described in previous reports.[24],[25] Briefly, the reporter cell plate containing stable HEK293 STF cells[53] (1 × 10^4 cells per well in 384-well microplates) carrying the Super Top Flash firefly luciferase reporter was prepared (overnight at 37 °C). Compounds and Notum protein were mixed for 10 min before the recombinant Wnt-3A was added and incubated for 1 h at room temperature. Then, the mixture from the compound plates was added to reporter cell plates and incubation overnight at 37 °C. For luciferase assay, steady-glo luciferase assay buffer (20 μL, Promega) was applied to the cell plates using the CyBio, the luminescence was measured on a PHERAstar FSXmicroplate reader with an excitation wavelength of 458 nm and an emission wavelength of 520 nm.
Background: Reporter assays use an easily measured gene product as a stand-in for the process of interest.

Where [3] appears, read: mean ± s.d. (n = 4), 40 min incubation at room temperature.

The term ΔTm denotes the change in melting temperature against a reference sample. As usually defined, the IC50 is the concentration needed to halve the response being measured. One may read the EC50 as the concentration that produces a half-maximal response. Regarding `COC(=O)CCC(=O)N1CCc2ccccc21` [Compound 1, Methyl 4-indolinyl-4-oxobutanoate], the “mass increase of treated Notum compared to untreated Notum” value at Notum (deglycosylated) was determined as 201.25 Da. On Notum (glycosylated) (compound 8 μM, start of significant changes), the ΔTm at 8 µM was determined as 2 °C. Also, on Notum (glycosylated), the ΔTm at 1000 µM turned out to be 10 °C and the ΔTm amounted to 5 °C. On Notum S232A mutant, the “mass change of treated Notum S232A mutant” value is “no mass change”. For the same molecule, on Notum [1] (setting [3]), the IC50 stood at 93 ± 20 nM. For the same molecule, the response at Notum [2] was half-maximal at 530 ± 47 nM (EC50).

As for `O=C(O)CCC(=O)N1CCc2ccccc21` [Compound 2, 4-indolinyl-4-oxobutanoic acid], on Notum (glycosylated), the ΔTm at 1000 µM was determined as 2.5 °C and the ΔTm was 1 °C. On Notum [1] (setting [3]), the IC50 is 3100 ± 920 nM.

As for `CCOC(=O)CCC(=O)N1CCc2ccccc21` [Compound 3], the IC50 against Notum [1] (setting [3]) was 190 ± 45 nM. In addition, the EC50 at Notum [2] worked out at 300 ± 60 nM.

In turn, `O=C(CCC(=O)N1CCc2ccccc21)OCC(F)F` [Compound 4] had a 50% inhibitory concentration (IC50) at Notum [1] (setting [3]) of 12 ± 2.8 nM.

For the molecule `O=C(CCC(=O)N1CCc2ccccc21)OCc1ccccc1` [Compound 5], the IC50 against Notum [1] (setting [3]) stood at 64 ± 14 nM.

The molecule `CC(C)OC(=O)CCC(=O)N1CCc2ccccc21` [Compound 6] gave a concentration for half-maximal inhibition (IC50) against Notum [1] (setting [3]) of 4300 ± 400 nM.

For orientation: inhibition means the share of the control response that was lost under treatment. `CC(C)(C)OC(=O)CCC(=O)N1CCc2ccccc21` [Compound 7]: the inhibition at 10 µM at Notum [1] (@ 10 μM, read-out: Notum OPTS % inhibition (% I)) was less than 10%. Further, the “Notum OPTS IC50” value on Notum [1] (setting [3]) was “inactive ^b”.
